In patent US4730068A, “Tumor retarding (1,2-diphenyl-ethylenediamine)-platinum(II)-complexes” (Asta-Werke Aktiengesellschaft, priority 1985, dated 1988):

Tests used:
[1] = test system: DMBA-induced hormone dependent rat mammary carcinoma; assay: DMBA-induced hormone dependent mammary carcinoma of the rat; type: in vivo; conditions: 3×6.5 mg/kg body weight/week
Protocol: Mouse leukemia P388, hormone independent human breast cancer cell line MDA-MB 231, hormone dependent human breast cancer cell line MCF7, hormone dependent mouse mammary carcinoma MXT, DMBA induced hormone dependent rat mammary carcinoma (DMBA is dimethylbenz[a]-anthracene).
For example on the mammary cancer of the rat, which was induced by 7, 12-dimethylbenz [a]-anthracene (DMBA), with the compound of Example 18 at a dosage of 3×6.5 mg/kg body weight/week there was determined with 88% of the tumors a complete remission. In the testing on the hormone independent human mammary tumor cell line MDA-MB 231 the compounds of the invention show for example in vitro in concentrations between 10^-5 and 10^-7 moles/liter a 50% inhibition of the growth of this cell line. The inhibition of [^3 H]-thymidine incorporation is of the same order of magnitude. The compounds of the invention act on the lymphocytic leukemia P388 (mouse) for example in dosages between 10 and 50 mg/kg (intraperitoneal application).

water solubility = type: physicochemical

Row | solubility in water (water solubility) | Molecule | tumors with complete remission [1]
1 |  | NC(c1c(Cl)cc(O)cc1Cl)C(N)c1c(Cl)cc(O)cc1Cl.[Cl-].[Cl-].[Pt+2] (stereo not drawn) [Example 18, meso-1,2-bis(2,6-dichloro-4-hydroxyphenyl)-ethylenediamine-dichloro-platinum(II)] | 88%
2 | soluble in water | Diaquo-meso-1,2-bis(2,6-dichloro-4-hydroxyphenyl)-ethylene-diamine-platinum(II)-sulfate [Example 34] | 
